In ChEMBL document CHEMBL1151757, “Synthesis, radiosynthesis, and biological evaluation of fluorine-18-labeled 2beta-carbo(fluoroalkoxy)-3beta-(3'-((Z)-2-haloethenyl)phenyl)nortropanes: candidate radioligands for in vivo imaging of the serotonin transporter with positron emission tomography” (J Med Chem, 2008):

Assays:
[1] = Drug uptake in anesthetized cynomolgus monkey brain cerebellum after 195 mins postinjection; format: ADME, organism-based, Macaca fascicularis; settings: in vivo, 3.25 h
[2] = Ratio of drug uptake in occipital lobe to cerebellum in anesthetized cynomolgus monkey after 95 mins postinjection; format: ADME, organism-based, Macaca fascicularis; settings: in vivo
Midbrain [3] = assay: Drug uptake in anesthetized cynomolgus monkey brain midbrain after 225 mins postinjection; format: ADME, organism-based, Macaca fascicularis; settings: in vivo, 3.75 h
[4] = Drug uptake in anesthetized cynomolgus monkey brain frontal lobe after 65 mins postinjection; format: ADME, organism-based, Macaca fascicularis; settings: in vivo
Putamen [5] = assay: Drug uptake in anesthetized cynomolgus monkey brain putamen after 1.5 mins postinjection; format: ADME, organism-based, Macaca fascicularis; settings: in vivo, 0.025 h
Midbrain [6] = assay: Drug uptake in anesthetized cynomolgus monkey brain midbrain after 45 mins postinjection; format: ADME, organism-based, Macaca fascicularis; parameters: unit not given here; settings: in vivo, 0.75 h
Caudate [7] = assay: Drug uptake in anesthetized cynomolgus monkey brain caudate after 15.5 mins postinjection; format: ADME, organism-based, Macaca fascicularis, Caudate nucleus; settings: in vivo
Medulla [8] = assay: Drug uptake in anesthetized cynomolgus monkey brain medulla after 235 mins postinjection; format: ADME, organism-based, Macaca fascicularis; settings: in vivo
[9] = Ratio of drug uptake in midbrain to cerebellum in anesthetized cynomolgus monkey after 18.5 mins postinjection; format: ADME, organism-based, Macaca fascicularis; settings: in vivo
[10] = Ratio of drug uptake in medulla to cerebellum in anesthetized cynomolgus monkey after 1.5 mins postinjection; format: ADME, organism-based, Macaca fascicularis; settings: in vivo, 0.025 h
Caudate [11] = assay: Drug uptake in anesthetized cynomolgus monkey brain caudate after 3.5 mins postinjection; format: ADME, organism-based, Macaca fascicularis, Caudate nucleus; settings: in vivo
[12] = Ratio of drug uptake in medulla to cerebellum in anesthetized cynomolgus monkey after 195 mins postinjection; format: ADME, organism-based, Macaca fascicularis; settings: in vivo, 3.25 h
[13] = Ratio of drug uptake in putamen to cerebellum in anesthetized cynomolgus monkey after 35 mins postinjection; format: ADME, organism-based, Macaca fascicularis; settings: in vivo
[14] = Ratio of drug uptake in medulla to cerebellum in anesthetized cynomolgus monkey after 9.5 mins postinjection; format: ADME, organism-based, Macaca fascicularis; settings: in vivo
Midbrain [15] = assay: Drug uptake in anesthetized cynomolgus monkey brain midbrain after 2.5 mins postinjection; format: ADME, organism-based, Macaca fascicularis; parameters: unit not given here; settings: in vivo
[16] = Ratio of drug uptake in putamen to cerebellum in anesthetized cynomolgus monkey after 3.5 mins postinjection; format: ADME, organism-based, Macaca fascicularis; settings: in vivo
Caudate [17] = assay: Drug uptake in anesthetized cynomolgus monkey brain caudate after 165 mins postinjection; format: ADME, organism-based, Macaca fascicularis, Caudate nucleus; settings: in vivo, 2.75 h
[18] = Drug uptake in anesthetized cynomolgus monkey brain frontal lobe after 3.5 mins postinjection; format: ADME, organism-based, Macaca fascicularis; settings: in vivo
[19] = Ratio of drug uptake in putamen to cerebellum in anesthetized cynomolgus monkey after 6.5 mins postinjection; format: ADME, organism-based, Macaca fascicularis; settings: in vivo
[20] = Drug uptake in anesthetized cynomolgus monkey brain cerebellum after 65 mins postinjection; format: ADME, organism-based, Macaca fascicularis; settings: in vivo
[21] = Drug uptake in anesthetized cynomolgus monkey brain occipital lobe after 4.5 mins postinjection; format: ADME, organism-based, Macaca fascicularis; settings: in vivo, 0.075 h
[22] = Drug uptake in anesthetized cynomolgus monkey brain occipital lobe after 95 mins postinjection; format: ADME, organism-based, Macaca fascicularis; settings: in vivo
[23] = Drug uptake in anesthetized cynomolgus monkey brain frontal lobe after 2.5 mins postinjection; format: ADME, organism-based, Macaca fascicularis; settings: in vivo
[24] = Ratio of drug uptake in thalamus to cerebellum in anesthetized cynomolgus monkey after 155 mins postinjection; format: ADME, organism-based, Macaca fascicularis; settings: in vivo
Putamen [25] = assay: Drug uptake in anesthetized cynomolgus monkey brain putamen after 45 mins postinjection; format: ADME, organism-based, Macaca fascicularis; parameters: unit not given here; settings: in vivo, 0.75 h
Putamen [26] = assay: Drug uptake in anesthetized cynomolgus monkey brain putamen after 35 mins postinjection; format: ADME, organism-based, Macaca fascicularis; parameters: unit not given here; settings: in vivo
[27] = Ratio of drug uptake in frontal lobe to cerebellum in anesthetized cynomolgus monkey after 95 mins postinjection; format: ADME, organism-based, Macaca fascicularis; settings: in vivo
[28] = Drug uptake in anesthetized cynomolgus monkey brain occipital lobe after 1.5 mins postinjection; format: ADME, organism-based, Macaca fascicularis; settings: in vivo, 0.025 h
Caudate [29] = assay: Drug uptake in anesthetized cynomolgus monkey brain caudate after 235 mins postinjection; format: ADME, organism-based, Macaca fascicularis, Caudate nucleus; settings: in vivo
Putamen [30] = assay: Drug uptake in anesthetized cynomolgus monkey brain putamen after 145 mins postinjection; format: ADME, organism-based, Macaca fascicularis; settings: in vivo
[31] = Drug uptake in anesthetized cynomolgus monkey brain occipital lobe after 65 mins postinjection; format: ADME, organism-based, Macaca fascicularis; settings: in vivo
Putamen [32] = assay: Drug uptake in anesthetized cynomolgus monkey brain putamen after 3.5 mins postinjection; format: ADME, organism-based, Macaca fascicularis; settings: in vivo
[33] = Ratio of drug uptake in midbrain to cerebellum in anesthetized cynomolgus monkey after 215 mins postinjection; format: ADME, organism-based, Macaca fascicularis; settings: in vivo
[34] = Drug uptake in anesthetized cynomolgus monkey brain frontal lobe after 145 mins postinjection; format: ADME, organism-based, Macaca fascicularis; settings: in vivo
[35] = Ratio of drug uptake in frontal lobe to cerebellum in anesthetized cynomolgus monkey after 3.5 mins postinjection; format: ADME, organism-based, Macaca fascicularis; settings: in vivo
[36] = Ratio of drug uptake in caudate to cerebellum in anesthetized cynomolgus monkey after 135 mins postinjection; format: ADME, organism-based, Macaca fascicularis; settings: in vivo, 2.25 h
Medulla [37] = assay: Drug uptake in anesthetized cynomolgus monkey brain medulla after 215 mins postinjection; format: ADME, organism-based, Macaca fascicularis; settings: in vivo
Pons [38] = assay: Drug uptake in anesthetized cynomolgus monkey brain pons after 35 mins postinjection; format: ADME, organism-based, Macaca fascicularis; settings: in vivo
Midbrain [39] = assay: Drug uptake in anesthetized cynomolgus monkey brain midbrain after 4.5 mins postinjection; format: ADME, organism-based, Macaca fascicularis; parameters: unit not given here; settings: in vivo, 0.075 h
[40] = Ratio of drug uptake in midbrain to cerebellum in anesthetized cynomolgus monkey after 22.5 mins postinjection; format: ADME, organism-based, Macaca fascicularis; settings: in vivo, 0.375 h
[41] = Ratio of drug uptake in caudate to cerebellum in anesthetized cynomolgus monkey after 18.5 mins postinjection; format: ADME, organism-based, Macaca fascicularis; settings: in vivo
Midbrain [42] = assay: Drug uptake in anesthetized cynomolgus monkey brain midbrain after 105 mins postinjection; format: ADME, organism-based, Macaca fascicularis; parameters: unit not given here; settings: in vivo, 1.75 h
[43] = Drug uptake in anesthetized cynomolgus monkey brain frontal lobe after 55 mins postinjection; format: ADME, organism-based, Macaca fascicularis; settings: in vivo
Thalamus [44] = assay: Drug uptake in anesthetized cynomolgus monkey brain thalamus after 185 mins postinjection; format: ADME, organism-based, Macaca fascicularis; settings: in vivo
[45] = Drug uptake in anesthetized cynomolgus monkey brain cerebellum after 115 mins postinjection; format: ADME, organism-based, Macaca fascicularis; settings: in vivo
Thalamus [46] = assay: Drug uptake in anesthetized cynomolgus monkey brain thalamus after 3.5 mins postinjection; format: ADME, organism-based, Macaca fascicularis; parameters: unit not given here; settings: in vivo
Medulla [47] = assay: Drug uptake in anesthetized cynomolgus monkey brain medulla after 135 mins postinjection; format: ADME, organism-based, Macaca fascicularis; settings: in vivo, 2.25 h
Medulla [48] = assay: Drug uptake in anesthetized cynomolgus monkey brain medulla after 85 mins postinjection; format: ADME, organism-based, Macaca fascicularis; settings: in vivo
Midbrain [49] = assay: Drug uptake in anesthetized cynomolgus monkey brain midbrain after 205 mins postinjection; format: ADME, organism-based, Macaca fascicularis; settings: in vivo
Putamen [50] = assay: Drug uptake in anesthetized cynomolgus monkey brain putamen after 85 mins postinjection; format: ADME, organism-based, Macaca fascicularis; parameters: unit not given here; settings: in vivo
[51] = Drug uptake in anesthetized cynomolgus monkey brain occipital lobe after 195 mins postinjection; format: ADME, organism-based, Macaca fascicularis; settings: in vivo, 3.25 h
Pons [52] = assay: Drug uptake in anesthetized cynomolgus monkey brain pons after 9.5 mins postinjection; format: ADME, organism-based, Macaca fascicularis; settings: in vivo
Caudate [53] = assay: Drug uptake in anesthetized cynomolgus monkey brain caudate after 1.5 mins postinjection; format: ADME, organism-based, Macaca fascicularis, Caudate nucleus; settings: in vivo, 0.025 h
[54] = Ratio of drug uptake in medulla to cerebellum in anesthetized cynomolgus monkey after 85 mins postinjection; format: ADME, organism-based, Macaca fascicularis; settings: in vivo
[55] = Ratio of drug uptake in thalamus to cerebellum in anesthetized cynomolgus monkey after 115 mins postinjection; format: ADME, organism-based, Macaca fascicularis; settings: in vivo
[56] = Drug uptake in anesthetized cynomolgus monkey brain frontal lobe after 155 mins postinjection; format: ADME, organism-based, Macaca fascicularis; settings: in vivo
Thalamus [57] = assay: Drug uptake in anesthetized cynomolgus monkey brain thalamus after 27.5 mins postinjection; format: ADME, organism-based, Macaca fascicularis; parameters: unit not given here; settings: in vivo
Thalamus [58] = assay: Drug uptake in anesthetized cynomolgus monkey brain thalamus after 15.5 mins postinjection; format: ADME, organism-based, Macaca fascicularis; parameters: unit not given here; settings: in vivo
[59] = Drug uptake in anesthetized cynomolgus monkey brain occipital lobe after 18.5 mins postinjection; format: ADME, organism-based, Macaca fascicularis; settings: in vivo
[60] = Drug uptake in anesthetized cynomolgus monkey brain cerebellum after 205 mins postinjection; format: ADME, organism-based, Macaca fascicularis; settings: in vivo
Putamen [61] = assay: Drug uptake in anesthetized cynomolgus monkey brain putamen after 185 mins postinjection; format: ADME, organism-based, Macaca fascicularis; settings: in vivo
[62] = Ratio of drug uptake in midbrain to cerebellum in anesthetized cynomolgus monkey after 9.5 mins postinjection; format: ADME, organism-based, Macaca fascicularis; settings: in vivo
Putamen [63] = assay: Drug uptake in anesthetized cynomolgus monkey brain putamen after 9.5 mins postinjection; format: ADME, organism-based, Macaca fascicularis; parameters: unit not given here; settings: in vivo
[64] = Ratio of drug uptake in putamen to cerebellum in anesthetized cynomolgus monkey after 65 mins postinjection; format: ADME, organism-based, Macaca fascicularis; settings: in vivo
[65] = Drug uptake in anesthetized cynomolgus monkey brain cerebellum after 12.5 mins postinjection; format: ADME, organism-based, Macaca fascicularis; settings: in vivo
Putamen [66] = assay: Drug uptake in anesthetized cynomolgus monkey brain putamen after 115 mins postinjection; format: ADME, organism-based, Macaca fascicularis; parameters: unit not given here; settings: in vivo
Midbrain [67] = assay: Drug uptake in anesthetized cynomolgus monkey brain midbrain after 115 mins postinjection; format: ADME, organism-based, Macaca fascicularis; parameters: unit not given here; settings: in vivo

`O=C(OCC[18F])C1C2CCC(CC1c1cccc(/C=C\Br)c1)N2` (configuration not stated) showed a Drug uptake [1] of 1.79, a Ratio [2] of 1 and a Drug uptake (Midbrain [3]) of 3.74. It also gave a Drug uptake [4] of 2.94, a Drug uptake (Putamen [5]) of 0.06 and a Drug uptake (Midbrain [6]) of 4.82. For the same compound, the Drug uptake (Caudate [7]) was 2.89, the Drug uptake (Medulla [8]) was 2.72 and the Ratio [9] was 1.2. The Ratio [10] was 1.3, the Drug uptake (Caudate [11]) was 0.63 and the Ratio [12] was 1.9. For the same compound, the Ratio [13] was 1.3, the Ratio [14] was 1.2 and the Drug uptake (Midbrain [15]) was 0.55. The Ratio [16] was 0.9, the Drug uptake (Caudate [17]) was 3.44 and the Drug uptake [18] was 0.62. It also gave a Ratio [19] of 1.1, a Drug uptake [20] of 3.5 and a Drug uptake [21] of 1.32. The Drug uptake [22] was 3.16, the Drug uptake [23] was 0.22 and the Ratio [24] was 1.7. It also gave a Drug uptake (Putamen [25]) of 4.94, a Drug uptake (Putamen [26]) of 4.8 and a Ratio [27] of 0.9. The Drug uptake [28] was 0.06, the Drug uptake (Caudate [29]) was 2.53 and the Drug uptake (Putamen [30]) was 4.21. It also gave a Drug uptake [31] of 3.45, a Drug uptake (Putamen [32]) of 1 and a Ratio [33] of 2.1. The Drug uptake [34] was 2.52, the Ratio [35] was 0.5 and the Ratio [36] was 1.5. The Drug uptake (Medulla [37]) was 3.04, the Drug uptake (Pons [38]) was 4.22 and the Drug uptake (Midbrain [39]) was 1.76. For the same compound, the Ratio [40] was 1.1, the Ratio [41] was 0.8 and the Drug uptake (Midbrain [42]) was 4.87. For the same compound, the Drug uptake [43] was 2.8, the Drug uptake (Thalamus [44]) was 3.48 and the Drug uptake [45] was 2.78. It also gave a Drug uptake (Thalamus [46]) of 0.67, a Drug uptake (Medulla [47]) of 4.21 and a Drug uptake (Medulla [48]) of 4.73. The Drug uptake (Midbrain [49]) was 4, the Drug uptake (Putamen [50]) was 4.94 and the Drug uptake [51] was 2.02. For the same compound, the Drug uptake (Pons [52]) was 3.15, the Drug uptake (Caudate [53]) was 0.04 and the Ratio [54] was 1.5. For the same compound, the Ratio [55] was 1.5, the Drug uptake [56] was 2.46 and the Drug uptake (Thalamus [57]) was 3.94. For the same compound, the Drug uptake (Thalamus [58]) was 3.29, the Drug uptake [59] was 2.89 and the Drug uptake [60] was 1.8. For the same compound, the Drug uptake (Putamen [61]) was 3.68, the Ratio [62] was 1.1 and the Drug uptake (Putamen [63]) was 3.59. It also gave a Ratio [64] of 1.5, a Drug uptake [65] of 3.41 and a Drug uptake (Putamen [66]) of 4.68. For the same compound, the Drug uptake (Midbrain [67]) was 4.78.
